Common to all, as to assay type: biochemical
In experiment [1] the target is Jak2 (a.a. 828-1132) (Homo sapiens (Human), UniProt O60674). The experiment is described as follows: In vitro JAK kinase assay (HTRF, phosphorylation of a biotinylated peptide), JAK2. The following applies: measured at 1 mM ATP. The gist of the method:
(§1)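 N-terminally His-tagged catalytic domains, baculovirus-expressed in insect cells and purified, were used as enzyme. Reactions ran 1 hr at room temperature and were stopped with a mix of 45 mM EDTA, 300 nM SA-APC and 6 nM Eu-Py20. The HTRF signal was read after 40 min of antibody binding.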

In experiment [2] the target is human JAK1 (a.a. 837-1142). The experiment is described as follows: In vitro JAK kinase assay (HTRF, phosphorylation of a biotinylated peptide), JAK1. The following applies: ratio of JAK2 IC50 to JAK1 IC50, measured at 1 mM ATP. The gist of the method: as §1
For experiment [3], the target named is human JAK1 (a.a. 837-1142) (Homo sapiens, UniProt P23458). The description is as above. As to conditions: measured at 1 mM ATP. The gist of the method:
as §1

Data on 21 compounds can be found in US9999619B2, “Piperidin-4-yl azetidine derivatives as JAK1 inhibitors” (Incyte Corporation, priority 2010, dated 2018).

A value given as a limit tells only on which side of the number the result lay.

Jak2 (a.a. 828-1132), sequence (O60674 828-1132): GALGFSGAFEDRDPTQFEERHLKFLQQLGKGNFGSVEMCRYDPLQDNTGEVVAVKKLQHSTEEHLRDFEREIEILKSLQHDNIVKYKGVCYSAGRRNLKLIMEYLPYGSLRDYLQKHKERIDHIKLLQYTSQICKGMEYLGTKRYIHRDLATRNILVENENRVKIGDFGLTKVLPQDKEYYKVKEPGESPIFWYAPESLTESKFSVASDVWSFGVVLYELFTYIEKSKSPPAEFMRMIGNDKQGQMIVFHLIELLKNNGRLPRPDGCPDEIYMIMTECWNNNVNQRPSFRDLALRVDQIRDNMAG

In the case of `N#CCC1(n2cc(-c3ncnc4[nH]ccc34)cn2)CN(C2CC3CCC(C2)N3Cc2c(F)ccc(F)c2Cl)C1` (stereo not drawn) [Example 241, {1-[8-(2-Chloro-3,6-difluorobenzyl)-8-azabicyclo[3.2.1]oct-3-yl]-3-[4-(7H-pyrrolo[2,3-d]pyrimidin-4-yl)-1H-pyrazol-1-yl]azetidin-3-yl}acetonitrile], the figures for the half-inhibitory concentration (IC50) in experiment [1] and in experiment [3] were at most 10 nM and at most 5 nM, respectively. The “IC50 Ratio JAK2/JAK1” value in experiment [2] amounted to 3.8.
For `Cn1nccc1S(=O)(=O)N1CCC(N2CC(CC#N)(n3cc(-c4ncnc5[nH]ccc45)cn3)C2)CC1` [Example 246, {1-{1-[(1-Methyl-1H-pyrazol-5-yl)sulfonyl]piperidin-4-yl}-3-[4-(7H-pyrrolo[2,3-d]pyrimidin-4-yl)-1H-pyrazol-1-yl]azetidin-3-yl}acetonitrile] the same measures were 10 to 50 nM, at most 5 nM and 7.5.
As for `N#CCC1(n2cc(-c3ncnc4[nH]ccc34)cn2)CN(C2CCN(S(=O)(=O)c3ccccc3C#N)CC2)C1` [Example 247, 2-[(4-{3-(cyanomethyl)-3-[4-(7H-pyrrolo[2,3-d]pyrimidin-4-yl)-1H-pyrazol-1-yl]azetidin-1-yl}piperidin-1-yl)sulfonyl]benzonitrile], the results for the 50% inhibitory concentration (IC50) in experiment [1] and in experiment [3] were at most 10 nM and at most 5 nM, respectively. Also, the “IC50 Ratio JAK2/JAK1” value in experiment [2] is listed as 5.1.
For `N#CCC1(n2cc(-c3ncnc4[nH]ccc34)cn2)CN(C2CCN(S(=O)(=O)c3cccc(C#N)c3)CC2)C1` [Example 248, 3-[(4-{3-(cyanomethyl)-3-[4-(7H-pyrrolo[2,3-d]pyrimidin-4-yl)-1H-pyrazol-1-yl]azetidin-1-yl}piperidin-1-yl)sulfonyl]benzonitrile], the values for the IC50 in experiment [1] and in experiment [3] were above 100 nM and 20 to 30 nM, respectively. For the same compound, the “IC50 Ratio JAK2/JAK1” value in experiment [2] is 5.2.
Taken in the same sequence, the figures for `N#CCC1(n2cc(-c3ncnc4[nH]ccc34)cn2)CN(C2CCN(S(=O)(=O)c3ccc(C#N)cc3)CC2)C1` [Example 249, 4-[(4-{3-(cyanomethyl)-3-[4-(7H-pyrrolo[2,3-d]pyrimidin-4-yl)-1H-pyrazol-1-yl]azetidin-1-yl}piperidin-1-yl)sulfonyl]benzonitrile] were 10 to 50 nM, 5 to 20 nM and 2.1.
For the compound `CN(C)c1ccc(S(=O)(=O)N2CCC(N3CC(CC#N)(n4cc(-c5ncnc6[nH]ccc56)cn4)C3)CC2)cc1C#N` [Example 250, 5-[(4-{3-(cyanomethyl)-3-[4-(7H-pyrrolo[2,3-d]pyrimidin-4-yl)-1H-pyrazol-1-yl]azetidin-1-yl}piperidin-1-yl)sulfonyl]-2-(dimethylamino)benzonitrile], the IC50 was 10 to 50 nM in experiment [1] and at most 5 nM in experiment [3]. In experiment [2], the “IC50 Ratio JAK2/JAK1” value is reported as 4.7.
As to `Cn1ccc(S(=O)(=O)N2CCC(N3CC(CC#N)(n4cc(-c5ncnc6[nH]ccc56)cn4)C3)CC2)n1` [Example 251, {1-{1-[(1-methyl-1H-pyrazol-3-yl)sulfonyl]piperidin-4-yl}-3-[4-(7H-pyrrolo[2,3-d]pyrimidin-4-yl)-1H-pyrazol-1-yl]azetidin-3-yl}acetonitrile], the 50% inhibitory concentration (IC50) in experiment [1] was at most 10 nM; in experiment [3], at most 5 nM. Further, the “IC50 Ratio JAK2/JAK1” value in experiment [2] was determined as 4.9.
With `N#CCC1(n2cc(-c3ncnc4[nH]ccc34)cn2)CN(C2CCN(S(=O)(=O)C3CCCC3)CC2)C1` [Example 253, {1-[1-(cyclopentylsulfonyl)piperidin-4-yl]-3-[4-(7H-pyrrolo[2,3-d]pyrimidin-4-yl)-1H-pyrazol-1-yl]azetidin-3-yl}acetonitrile], the IC50 in experiment [1] was at most 10 nM; in experiment [3], at most 5 nM. For the same compound, the “IC50 Ratio JAK2/JAK1” value in experiment [2] was 5.8.
Taken in the same sequence, the figures for `Cn1cnc(S(=O)(=O)N2CCC(N3CC(CC#N)(n4cc(-c5ncnc6[nH]ccc56)cn4)C3)CC2)c1` [Example 258, {1-{1-[(1-methyl-1H-imidazol-4-yl)sulfonyl]piperidin-4-yl}-3-[4-(7H-pyrrolo[2,3-d]pyrimidin-4-yl)-1H-pyrazol-1-yl]azetidin-3-yl}acetonitrile] were at most 10 nM, at most 5 nM and 5.0.
Taken in the same sequence, the figures for `Cc1nc(S(=O)(=O)N2CCC(N3CC(CC#N)(n4cc(-c5ncnc6[nH]ccc56)cn4)C3)CC2)cn1C` [Example 259, {1-{1-[(1,2-dimethyl-1H-imidazol-4-yl)sulfonyl]piperidin-4-yl}-3-[4-(7H-pyrrolo[2,3-d]pyrimidin-4-yl)-1H-pyrazol-1-yl]azetidin-3-yl}acetonitrile] were at most 10 nM, at most 5 nM and 4.6.
For `Cc1noc(C)c1S(=O)(=O)N1CCC(N2CC(CC#N)(n3cc(-c4ncnc5[nH]ccc45)cn3)C2)CC1` [Example 260, {1-{1-[(3,5-dimethylisoxazol-4-yl)sulfonyl]piperidin-4-yl}-3-[4-(7H-pyrrolo[2,3-d]pyrimidin-4-yl)-1H-pyrazol-1-yl]azetidin-3-yl}acetonitrile] the same measures were 10 to 50 nM, at most 5 nM and 7.1.
Take `N#CCC1(n2ccc(-c3ncnc4[nH]ccc34)c2)CN(C2CCN(C(=O)c3ccnc(C(F)(F)F)c3F)CC2)C1` [Example 261, {1-{1-[3-Fluoro-2-(trifluoromethyl)isonicotinoyl]piperidin-4-yl}-3-[3-(7H-pyrrolo[2,3-d]pyrimidin-4-yl)-1H-pyrrol-1-yl]azetidin-3-yl}acetonitrile]: the figures for the IC50 in experiment [1] and in experiment [3] were above 100 nM and 5 to 20 nM, respectively. The “IC50 Ratio JAK2/JAK1” value in experiment [2] was 20.8.
In the case of `N#CCC1(n2ccc(-c3ncnc4[nH]ccc34)c2)CN(C2CCN(C(=O)c3cccc(C#N)c3)CC2)C1` [Example 262, 3-[(4-{3-(cyanomethyl)-3-[3-(7H-pyrrolo[2,3-d]pyrimidin-4-yl)-1H-pyrrol-1-yl]azetidin-1-yl}piperidin-1-yl)carbonyl]benzonitrile], the concentration for half-maximal inhibition (IC50) in experiment [1] lay in the range of 50 to 100 nM; in experiment [3], 5 to 20 nM. For the same compound, in experiment [2], the “IC50 Ratio JAK2/JAK1” value worked out at 7.4.
Regarding `N#CCC1(n2ccc(-c3ncnc4[nH]ccc34)c2)CN(C2CCN(C(=O)c3cc(F)cc(C#N)c3)CC2)C1` [Example 263, 3-[(4-{3-(cyanomethyl)-3-[3-(7H-pyrrolo[2,3-d]pyrimidin-4-yl)-1H-pyrrol-1-yl]azetidin-1-yl}piperidin-1-yl)carbonyl]-5-fluorobenzonitrile], the concentration for half-maximal inhibition (IC50) in experiment [1] was 50 to 100 nM; in experiment [3], at most 5 nM. Further, in experiment [2], the “IC50 Ratio JAK2/JAK1” value was determined as 12.2.
As for `N#CCC1(n2ccc(-c3ncnc4[nH]ccc34)c2)CN(C2CCN(C(=O)c3ccc(C#N)cc3F)CC2)C1` [Example 264, 4-[(4-{3-(cyanomethyl)-3-[3-(7H-pyrrolo[2,3-d]pyrimidin-4-yl)-1H-pyrrol-1-yl]azetidin-1-yl}piperidin-1-yl)carbonyl]-3-fluorobenzonitrile], the values for the IC50 in experiment [1] and in experiment [3] were 50 to 100 nM and 5 to 20 nM, respectively. In addition, the “IC50 Ratio JAK2/JAK1” value in experiment [2] worked out at 9.5.
Taken in the same sequence, the figures for `N#CCC1(n2ccc(-c3ncnc4[nH]ccc34)c2)CN(C2CCN(C(=O)c3c(F)cc(C#N)cc3F)CC2)C1` [Example 265, 4-[(4-{3-(cyanomethyl)-3-[3-(7H-pyrrolo[2,3-d]pyrimidin-4-yl)-1H-pyrrol-1-yl]azetidin-1-yl}piperidin-1-yl)carbonyl]-3,5-difluorobenzonitrile] were 50 to 100 nM, 5 to 20 nM and 6.6.
On to `N#CCC1(n2ccc(-c3ncnc4[nH]ccc34)c2)CN(C2CCN(C(=O)c3cc(F)ccc3C(F)(F)F)CC2)C1` [Example 266, {1-{1-[5-fluoro-2-(trifluoromethyl)benzoyl]piperidin-4-yl}-3-[3-(7H-pyrrolo[2,3-d]pyrimidin-4-yl)-1H-pyrrol-1-yl]azetidin-3-yl}acetonitrile], for which the IC50 in experiment [1] lay within 50 to 100 nM; in experiment [3], 5 to 20 nM. Also, in experiment [2], the “IC50 Ratio JAK2/JAK1” value was 6.6.
Taken in the same sequence, the figures for `N#CCC1(n2ccc(-c3ncnc4[nH]ccc34)c2)CN(C2CCN(C(=O)c3ccc(C(F)(F)F)c(F)c3)CC2)C1` [Example 267, {1-{1-[3-fluoro-4-(trifluoromethyl)benzoyl]piperidin-4-yl}-3-[3-(7H-pyrrolo[2,3-d]pyrimidin-4-yl)-1H-pyrrol-1-yl]azetidin-3-yl}acetonitrile] were 50 to 100 nM, 5 to 20 nM and 6.6.
For `N#CCC1(n2ccc(-c3ncnc4[nH]ccc34)c2)CN(C2CCN(C(=O)c3cccc(C(F)(F)F)c3)CC2)C1` [Example 268, (3-[3-(7H-pyrrolo[2,3-d]pyrimidin-4-yl)-1H-pyrrol-1-yl]-1-{1-[3-(trifluoromethyl)benzoyl]piperidin-4-yl}azetidin-3-yl)acetonitrile] the same measures were 10 to 50 nM, 5 to 20 nM and 3.1.
In the case of `N#CCC1(n2ccc(-c3ncnc4[nH]ccc34)c2)CN(C2CCN(C(=O)c3cc(OC(F)(F)F)ccc3F)CC2)C1` [Example 269, {1-{1-[2-fluoro-5-(trifluoromethoxy)benzoyl]piperidin-4-yl}-3-[3-(7H-pyrrolo[2,3-d]pyrimidin-4-yl)-1H-pyrrol-1-yl]azetidin-3-yl}acetonitrile], the half-inhibitory concentration (IC50) is 10 to 50 nM in experiment [1] and at most 5 nM in experiment [3]. The “IC50 Ratio JAK2/JAK1” value in experiment [2] is given as 5.0.
Taken in the same sequence, the figures for `N#CCC1(n2ccc(-c3ncnc4[nH]ccc34)c2)CN(C2CCN(C(=O)c3c(F)ccc(F)c3F)CC2)C1` [Example 270, {3-[3-(7H-pyrrolo[2,3-d]pyrimidin-4-yl)-1H-pyrrol-1-yl]-1-[1-(2,3,6-trifluorobenzoyl)piperidin-4-yl]azetidin-3-yl}acetonitrile] were at most 10 nM, at most 5 nM and 6.1.
